Data on one compound can be found in US10160972B2, “Methods and materials for treating cancer” (Mayo Foundation for Medical Education and Research, priority 2012, dated 2018).

For test [1], the system named is ATF6 luciferase reporter in A498 cells.
Protocol: For transient transfection, Caki1 and A498 cells were transfected using Lipofectamine 2000. Cells treated with DMSO vs. A939572 or infected using shSCD780 lentiviral constructs vs. NT control were harvested after 48 hrs using Promega's Dual Luciferase assay kit per the manufacturer's protocol and luciferase activity was measured using a Veritas Luminometer; reported as relative luminescence.
Caki1 and A498 cells transfected with an ATF6 luciferase reporter (p5xATF6-GL3) were treated with a 75 nM dose of A939572 or were infected with shSCD780. Resulting luminescence was measured after 48 hours.
The subject of test [2] is A498 cells. The test is described as follows: qPCR of five ER stress genes. In kind it is cell-based, human. As for the experimental part:
(§1) An RNAqueous Midi Kit was utilized to extract and purify RNA from cell lines. Human tissue RNA was prepared using TRIzol® per manufacturer's protocol followed by purification using the RNAqueous Midi Kit. The O.D. 260/280 ratio of the mRNA was at least 1.8 and the 18s/28s bands were verified on a 1% agarose gel. cDNA was prepared from purified RNA samples using High Capacity cDNA Reverse Transcriptase Kit per manufacturer's instruction. TaqMan®Fast Universal PCR Master Mix and TaqMan®FAMTM dye-labeled probes including POLR2A (Hs00172187_m1) (normalization control), SCD1 (Hs01682761_m1), HSPA5 (Hs99999174_m1), CEBPβ (CEBPB Hs00270923_s1), GADD45A (Hs00169255_m1), DDIT3 (Hs01090850_m1), and HERPUD1 (Hs01124269_m1) were combined with prepared cDNA samples to analyze relative mRNA expression via qPCR. Fold change values were compared between normal and tumor, non-target scrambled lentiviral and target lentiviral infected, and DMSO vs. A939572 treated samples using the ΔΔCt method (Schmittgen T D, Livak K J. Analyzing real-time PCR data by the comparative C(T) method. Nat Protoc. 2008; 3:1101-8).
(§2) In order to validate the specificity of ER stress induction mediated by both A939572 and shSCD780, rescue assays were performed using OA-BSA in Caki1 and A498 cells qPCR analysis of five ER stress genes identified in the gene array including BiP, CHOP, HERPUD1 (homocysteine-inducible, ER-stress inducible, ubiquitin-like-1), GADD45a (DNA damage inducible transcript 1, DDIT1), and CEBPβ (CCAAT/enhancer binding protein beta) were examined.

Test [3] deals with Caki1 cells. The test is described as follows: qPCR of five ER stress genes. Type of test: cell-based, human. As for the experimental part: as §1, §2
Test [4] has as its system A498 ccRCC xenografts. Briefly: Western blot of CHOP in xenograft tumor tissue. In kind it is in vivo, athymic nude (nu/nu) mice. The following applies: normalized to β-actin, tumor tissue samples. As for the experimental part: Protein extracts, electrophoresis, and membrane transfers were prepared as previously described (Copland J A, Marlow L A, Kurakata S, Fujiwara K, Wong A K, Kreinest P A, et al. Novel highaffinity PPARgamma agonist alone and in combination with paclitaxel inhibits human anaplastic thyroid carcinoma tumor growth via p21WAF1/CIP1. Oncogene. 2006; 25:2304-17). Primary antibodies included SCD1, PARP, DDIT3, BiP, sXBP1, and β-actin. A Supersignal chemiluminescent kit was used to perform detection.

In test [5] the test system is A498 ccRCC xenografts. The test is described as follows: IHC analysis of resected xenograft tumors.
Protocol: The TMAs were mounted on slides from paraffin-embedded blocks according to IHC procedure and samples were blocked with Diluent that contained Background Reducing Components (Dakocytomation) for 30 min and then probed for SCD1, Ki67, Caspase-3, CD31, phospho-mTOR, DDIT3, and XBP1. […] Stain scoring was done using algorithms generated with Imagescope software created by a histologist. H-scores were calculated based upon signal intensity (0-3+) using the formula: [(1+%×1)+(2+%×2)+(3+%×3)], intensity (I)-scores were calculated by dividing signal intensity by area, and nuclear (N)-scores were calculated by dividing % positive nuclei by total nuclei examined per area. Cases where insufficient tumor tissue presented were excluded from the study. 20× images were obtained using Scanscope XT and Imagescope software.
IHC analysis of tumors resected from each treatment group was analyzed for proliferation, angiogenesis, and cell death (FIG. 6B).
In test [6] the test system is Caki1, A498, Caki2, and ACHN ccRCC cell lines. Briefly: OA-BSA rescue of growth inhibition. In kind it is cell-based, human. The following applies: IC50 doses of A939572 + OA-BSA vs DMSO+BSA control, all four cell lines. As for the experimental part: Drug stocks were prepared in DMSO. Monotherapeutic treatment identified drug dose-response. […] Temsirolimus dosing was performed as described in the text.

The test system of test [7] is MiaPaca cells. The test is described as follows: Cell number growth inhibition assay. The following applies: cell number as percent of DMSO control. In kind it is cell-based, human. How it is done: (§3) A number of cancer cell lines were tested to determine whether SCD1 protein expression correlates with growth inhibition of an SCD1 inhibitor in human cancer cell lines.
(§4) Cells (20,000/ml) were plated in 12 well cell culture plates, allowed to attach and treated with the indicated dose of SCD1 inhibitor ([…]) or standard of care (gemcitabine). Cell number was counted using a Coulter Counter. As show in FIG. 7, the data are expressed as percent of DMSO control. Each value represents triplicates. Western analysis for SCD1 protein expression was performed on each cell line with beta-actin as the loading control.

The test system of test [8] is Panc cells. The test is described as follows: Cell number growth inhibition assay. In kind it is cell-based, human. As for the experimental part:
as §3, §4

Take `CNC(=O)c1cccc(NC(=O)N2CCC(Oc3ccccc3Cl)CC2)c1` [A939572]: in test [1] (A498, + OA-BSA), the “reporter activation with addition of OA-BSA” value is on record as “significantly reduced reporter activation”. Further, the “luciferase activity, fold change induction” value in test [1] (A498, +BSA, 75 nM A939572 or shSCD780, 48 hours, vs DMSO and NT controls) was 3.8 fold change. Also, the “ER stress gene expression with addition of OA-BSA” value is given as “blocked” in test [2] (A498, + OA-BSA) and “blocked” in test [3] (Caki1, + OA-BSA). Further, the “mRNA expression of ER stress genes BiP, CHOP, HERPUD1, GADD45a, CEBPβ” value is given as “significantly increased levels” in test [2] (A498, vs DMSO+BSA or NT control) and “significantly increased levels” in test [3] (Caki1, vs DMSO+BSA or NT control). For the same compound, in test [4], the “CHOP expression (ER stress)” value is listed as “Increased expression of CHOP”. The “cell death, cleaved caspase-3 (CC3)” value in test [5] (vs placebo / other groups) is “moderate increase”. The “proliferation, percent positivity of nuclear Ki67 staining” value in test [5] (vs placebo control) is “decreased proliferation”. In test [6], the “growth inhibition with addition of OA-BSA” value is listed as “prevented A939572 mediated growth inhibition”. In addition, the figures for the growth inhibition entry in test [7] and in test [8] were “growth inhibited in a dose dependent fashion” and “growth inhibited at only high levels”, respectively.
